In US8389523B2, “Substituted quinoxaline and an agrochemical composition thereof” (Kumiai Chemical Industry Co., Ltd., priority 2007, dated 2013):

Legend:
Assay type in all cases: in vivo
Parameters in all cases: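 grade 0 to 5 of growth suppression where 5 is 90% or more and 0 below 10%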
[1] = test system: Echinochloa oryzicola Vasing; experiment: Herbicidal effects in paddy field soil treatment (Test Example 1); settings: paddy field soil treatment; 1000 g of the active ingredient per hectare; wettable powder added dropwise on water surface; 21st day after treatment
In short: (§1)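 Weed seeds were sown into puddled, leveled paddy soil in pots and flooded to 3 cm water depth. One day later the diluted wettable powder formulation was dropped onto the water surface at 1000 g active ingredient per hectare. Herbicidal effect was scored on day 21 after greenhouse growth.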

[2] = test system: Monochoria vaginalis (Burm. f.) Presl var. plantaginea (Roxb.) Solms-Laub.; experiment: as above; settings: paddy field soil treatment; 1000 g of the active ingredient per hectare; wettable powder added dropwise on water surface; 21st day after treatment
In short: as §1

[3] = test system: Scirpus juncoides Roxb. var. ohwianus. T. Koyama; experiment: as above; settings: paddy field soil treatment; 1000 g of the active ingredient per hectare; wettable powder added dropwise on water surface; 21st day after treatment
In short: as §1

[4] = test system: Abutilon theophrasti medicus; experiment: Herbicidal effects in upland field soil treatment (Test Example 2); settings: 1000 g active ingredient per hectare, 21st day after treatment, criteria of Table 138
In short: (§2)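 Pre-emergence soil application: seeds sown in upland field soil, covered, then wettable powder diluted in water sprayed on the soil surface at 1000 g active ingredient/ha in 1000 L/ha. Plants grown in greenhouse; herbicidal effect scored on a rating scale 21 days after treatment.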

Amaranthus viridis L. [5] = experiment: as above; settings: 1000 g active ingredient per hectare, 21st day after treatment, criteria of Table 138
In short: as §2

[6] = test system: Abutilon theophrasti medicus; experiment: Herbicidal effects in upland field foliar treatment (Test Example 3); settings: 1000 g of the active ingredient per hectare, 14th day after the treatment, wettable powder, criteria of Table 138
In short: (§3)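 Weeds were sown in upland field soil and grown two weeks in a greenhouse before a foliar spray over the whole plant. Wettable powder was diluted in water and applied at 1000 L/ha, delivering 1000 g active ingredient/ha. Herbicidal effect was scored against set rating criteria 14 days after treatment.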

Amaranthus viridis L. [7] = experiment: as above; settings: 1000 g of the active ingredient per hectare, 14th day after the treatment, wettable powder, criteria of Table 138
In short: as §3

[8] = test system: Echinochloa crus-galli (L.) P. Beauv. var. crus-galli; experiment: as above; settings: 1000 g of the active ingredient per hectare, 14th day after the treatment, wettable powder, criteria of Table 138
In short: as §3

SMILES	Herbicidal effects index, Echinochloa oryzicola Vasing [1]	Herbicidal effects index, Monochoria vaginalis (Burm. f.) Presl var. plantaginea (Roxb.) Solms-Laub. [2]	Herbicidal effects index, Scirpus juncoides Roxb. var. ohwianus. T. Koyama [3]	herbicidal effect (index) on Abutilon theophrasti medicus [4]	herbicidal effect (index) on Amaranthus viridis L. (Amaranthus viridis L. [5])	herbicidal effects on Abutilon theophrasti medicus [6]	herbicidal effects on Amaranthus viridis L. (Amaranthus viridis L. [7])	herbicidal effects on Echinochloa crus-galli (L.) P. Beauv. var. crus-galli [8]
O=C1CCCC(O)=C1C(=O)c1nc2ccccc2n(-c2cccc(OC(F)(F)F)c2)c1=O [II-101]	5	5	5	5	5	5	5	5
CSc1ccc(-n2c(=O)c(C(=O)C3=C(O)CCCC3=O)nc3ccccc32)cc1 [II-122]	5	5	5	5	5	4	5	5
CS(=O)(=O)c1ccc(-n2c(=O)c(C(=O)C3=C(O)CCCC3=O)nc3ccccc32)cc1 [II-125]	5	5	5	5	5	5	5	5
O=C1CCCC=C1C(=O)c1nc2ccccc2n(-c2ccccc2[N+](=O)[O-])c1=O [II-129]	5	5	5	5	5	5	5	5
O=C1CCCC(O)=C1C(=O)c1nc2ccccc2n(-c2cccc([N+](=O)[O-])c2)c1=O [II-130]	5	5	5	5	5	5	5	5
O=C1CCCC(O)=C1C(=O)c1nc2ccccc2n(-c2ccc([N+](=O)[O-])cc2)c1=O [II-131]	5	5	5	5	5	5	5	5
N#Cc1cccc(-n2c(=O)c(C(=O)C3=C(O)CCCC3=O)nc3ccccc32)c1 [II-136]	5	5	5	5	5	5	5	5
N#Cc1ccc(-n2c(=O)c(C(=O)C3=C(O)CCCC3=O)nc3ccccc32)cc1 [II-137]	5	5	5	5	5	5	5	5
